Measured values as given in patent publication US9795135B2, “Binary fungicidal composition” (BAYER CORPSCIENCE AKTIENGESELLSCHAFT, priority 2013, dated 2017).

Legend:
Alternaria solani = test: Alternaria test (tomatoes) / preventive; type: in vivo; conditions: 80 ppm a.i.; tomatoes sprayed 24 h before inoculation; evaluated 3 days after inoculation
Experimental: Alternaria Test (Tomatoes)/Preventive
(§1) Biological control agents and diverse chemical active compounds were tested solo and in a mixture of both. The biological control agents SERENADE® DPZ (comprising the biological control agent B1.1.18, Bacillus subtilis, strain AQ30002, Accession No. NRRL B-50421), SERENADE® ASO (comprising the biological control agent B1.1.1, Bacillus subtilis, strain QST713/AQ713, Accession No. NRRL B-21661) and SONATA® (comprising the biological control agent B1.1.6, Bacillus pumilus, strain QST2808, Accession No. NRRL B-30087) were diluted with water to the desired application rate of 100 ppm a.i. to 500 ppm a.i., referring to the amount of 1.34% Bacillus subtilis or 1.38% Bacillus pumilis product.
The chemical compounds were solved in acetone+dimethylacetamide in a ratio of 1/1+2% PS 16 (Alkylarylpolyglykolether) and diluted with water or the prepared bacteria suspension. Chemical compounds were tested in the concentration of 80 ppm a.i.
In order to test the activity, young plants of tomatoes (21 d after sowing) were sprayed with the preparation of active compound at the stated rate of application. 24 h after application, the plants were inoculated with an aqueous spore suspension (7.500 spores/ml) of Alternaria solani. The wetted plants were then placed in an incubation cabinet at approximately 20° C. and a relative atmospheric humidity of 100% and darkness.
The test was evaluated 3 days after the inoculation. Assessment: % infested leaf. 0% efficacy corresponds to the level of disease in the untreated control while an efficacy of 100% means that no disease is observed.

Sphaerotheca fuliginea = test: Sphaerotheca test (cucumbers) / preventive; type: in vivo; conditions: 80 ppm a.i.; cucumber sprayed 24 h before inoculation; evaluated 7 d after inoculation
Experimental: Sphaerotheca Test (Cucumbers)/Preventive
as §1, with “B-50421), SERENADE” for “B-50421), SERENADE®”
The chemical compounds were solved in acetone+dimethylacetamide in the ratio 1/1+2% PS 16 (Alkylarylpolyglykolether) and diluted with water or the prepared bacteria suspension. Chemical compounds were tested in the concentration of 80 ppm a.i.
In order to test the activity, young plants (kotyledones are fully developed) of cucumber c.v. “Delikatess” were sprayed with the undermentioned preparation of compounds at the stated time of application. 24 h after application, the plants were inoculated with an aqueous spore suspension of Sphaerotheca fuliginea. Infested plants were stored in greenhouse at 22° C. and 70% relative humidity.
The test was evaluated 7 d after inoculation. Assessment: % infested leaf. 0% efficacy corresponds to the level of disease in the untreated control while an efficacy of 100% means that no disease is observed.

Row | Structure (SMILES) | Efficacy in % Found* (Alternaria solani) [%] | Efficacy in % Found* (Sphaerotheca fuliginea) [%]
1 | CC1(C)N=C(c2cnc3ccccc3c2)c2cccc(F)c2C1(C)C [(I-1)] | 37 | 49
2 | CC1(C)N=C(c2cnc3ccccc3c2)c2ccccc2C1(F)F [(I-2)] | 13 | 35
3 | CC1(C)N=C(c2cnc3ccccc3c2)c2cccc(F)c2C1(F)F [(I-3)] | 37 | 32
